Assay results as given in patent publication US6541002B1, “Compositions and methods for providing a protein to a virion” (Thomas Jefferson University, priority 1998, dated 2003).
No end group written: not given here.

Target: HIV-1 Vpr (Human immunodeficiency virus type 1 group M subtype B, UniProt P12520)
Conditions: heptapeptide fused to Gal4AD, co-expressed with Vpr-Gal4 DNA-binding domain chimera
Excerpt: DNA fragments encoding the variable heptapeptide region of the coat protein of individual phage isoforms selected from the library described herein were amplified using PCR from purified phage DNA. Amplified peptide-encoding DNA was cloned in frame between the EcoRI and BglII restriction endonuclease sites of pGADGH for use in yeast two-hybrid system experiments.
The yeast reporter strain, HF7c, which comprises two Gal4-inducible reporter genes, namely HIS3 and LacZ, has been described (BouHamdan et al., 1996, J. Virol. 70:697-704). HF7c cells were transformed with two plasmids, pGB-UDG and pGA-Vpr, using known methods to yield double transformant HF7c cells. […] Cells obtained from these plates were used in a liquid culture assay with yeast reporter strain SFY526 to detect beta-galactosidase activity, as described (BouHamdan et al., 1996, J. Virol. 70:697-704; Bartel et al., 1993, Biotech. 14:920-924). […] was used as the substrate in the assay, and each assay was performed in triplicate.
Intracellular interaction of ten of the heptapeptide regions listed in Table 2 with HIV-1 Vpr was further tested using the yeast two-hybrid system.

Row | Substance | ability of double transformant HF7c cells to grow on histidine-deficient medium
1 | GHTWWTF [Pep#7] | better able to grow on histidine-deficient medium than the other double transformants tested
2 | KPKWAIV [Pep#2] | unable to grow on histidine-deficient medium
3 | KPMWWHF [Pep#9] | better able to grow on histidine-deficient medium than the other double transformants tested
4 | LPPWAAF [Pep#6] | better able to grow on histidine-deficient medium than the other double transformants tested
5 | SAPWWTF [Pep#5] | better able to grow on histidine-deficient medium than those which expressed chimeric proteins having an amino acid sequence identified in Table 2 as Pep#1 (SEQ ID NO: 16), Pep#8 (SEQ ID NO: 17), or Pep#10 (SEQ ID NO: 18)
6 | SWWSFTP [Pep#1] | able to grow on histidine-deficient medium
7 | TTWWWQF [Pep#4] | better able to grow on histidine-deficient medium than those which expressed chimeric proteins having an amino acid sequence identified in Table 2 as Pep#1 (SEQ ID NO: 16), Pep#8 (SEQ ID NO: 17), or Pep#10 (SEQ ID NO: 18)
8 | WHDFPLV [Pep#3] | better able to grow on histidine-deficient medium than the other double transformants tested
9 | WHSFPDS [Pep#10] | able to grow on histidine-deficient medium
10 | WHSFPPP [Pep#8] | able to grow on histidine-deficient medium
